The record followed here is ChEMBL document CHEMBL1148794, “Structure-activity relationship of a series of inhibitors of monoacylglycerol hydrolysis--comparison with effects upon fatty acid amide hydrolase” (J Med Chem, 2007).

For experiment [1], the target named is T1, Fatty-acid amide hydrolase 1 (Rattus norvegicus) (UniProt P97612).
T1 sequence (whole entry): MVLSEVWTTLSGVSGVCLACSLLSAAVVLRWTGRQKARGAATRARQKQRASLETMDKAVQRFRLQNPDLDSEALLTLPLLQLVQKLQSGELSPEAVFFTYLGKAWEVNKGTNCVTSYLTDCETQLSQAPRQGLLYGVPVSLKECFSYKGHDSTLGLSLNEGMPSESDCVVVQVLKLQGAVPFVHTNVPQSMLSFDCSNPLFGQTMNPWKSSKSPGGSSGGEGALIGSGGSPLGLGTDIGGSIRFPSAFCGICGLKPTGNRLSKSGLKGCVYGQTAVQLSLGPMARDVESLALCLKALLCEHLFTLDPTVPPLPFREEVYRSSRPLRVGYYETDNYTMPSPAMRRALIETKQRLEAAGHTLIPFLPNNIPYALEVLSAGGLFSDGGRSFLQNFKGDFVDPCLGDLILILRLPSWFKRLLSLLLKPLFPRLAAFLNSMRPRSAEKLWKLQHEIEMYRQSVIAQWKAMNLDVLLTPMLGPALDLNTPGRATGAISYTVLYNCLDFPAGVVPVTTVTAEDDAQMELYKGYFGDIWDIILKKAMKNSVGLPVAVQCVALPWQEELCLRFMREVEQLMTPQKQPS
The experiment in a line: Inhibition of FAAH in rat cerebellum membranes assessed as [3H]anandamide hydrolysis at 100 uM. Format: cell membranes. The conditions noted are these: Membrane.

Experiment [2] concerns the target T2, Monoglyceride lipase (Rattus norvegicus) (UniProt Q8R431).
T2 sequence (whole entry): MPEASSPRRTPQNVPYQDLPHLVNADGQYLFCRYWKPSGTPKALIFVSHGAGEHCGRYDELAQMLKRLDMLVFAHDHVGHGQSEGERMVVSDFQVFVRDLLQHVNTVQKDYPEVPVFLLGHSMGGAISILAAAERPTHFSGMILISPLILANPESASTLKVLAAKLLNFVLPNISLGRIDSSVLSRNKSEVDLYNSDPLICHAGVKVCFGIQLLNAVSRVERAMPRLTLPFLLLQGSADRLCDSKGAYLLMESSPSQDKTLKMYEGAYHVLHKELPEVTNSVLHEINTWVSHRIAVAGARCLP
The experiment in a line: Inhibition of MGL in rat cerebellum membrane fractions assessed as [3H]2-oleoylglycerol hydrolysis at 100 uM. Format: cell membranes.

The target of experiment [3] is T2, Monoglyceride lipase (Rattus norvegicus). Briefly: Inhibition of MGL in rat cerebellum cytosolic fractions assessed as [3H]2-oleoylglycerol hydrolysis at 100 uM. Type of experiment: tissue-based.
Experiment [4] has as its target T1, Fatty-acid amide hydrolase 1 (Rattus norvegicus). Briefly: (§1) Inhibition of FAAH in rat cerebellum membranes assessed as [3H]anandamide hydrolysis. Type of experiment: cell membranes. The conditions noted are these: Membrane.
In experiment [5] the target is T3, Fatty-acid amide hydrolase 1 (Rattus norvegicus, UniProt P97612).
T3 sequence (P97612 whole entry): T1 sequence (whole entry)
The experiment is described as §1. Format: cell membranes, Membrane.

The target in experiment [6] is T2, Monoglyceride lipase (Rattus norvegicus). Briefly: Inhibition of MGL in rat cerebellum membrane fractions assessed as [3H]2-oleoylglycerol hydrolysis. Type of experiment: cell membranes.
The target of the next experiment is T4, Monoglyceride lipase (Rattus norvegicus, UniProt Q8R431).
T4 sequence (Q8R431 whole entry): T2 sequence (whole entry)
Briefly: (§2) Inhibition of MGL in rat cerebellum cytosolic fractions assessed as [3H]2-oleoylglycerol hydrolysis. Format: tissue-based.

Experiment [7] concerns the target T2, Monoglyceride lipase (Rattus norvegicus). The description is as §2. Format: tissue-based.

As to `CCCCC/C=C\C/C=C\C/C=C\C/C=C\CCCC(=O)OC1CCOCC1`, the inhibition in experiment [1] turned out to be 63%; in experiment [2], 33%; in experiment [3], 62%. In experiment [4], the pI50 (-log10 of IC50 in M) worked out at 5.3. Also, the IC50 in experiment [5] was found to be 5.3 µM; at Monoglyceride lipase, 30 µM. For the same molecule, in experiment [6], the Log I50 was less than 4. Moreover, in experiment [7], the pI50 (-log I50, M) stood at 4.5.
On to `CCCCCC/C=C\CCCCCCCC(=O)OCC1CCCCO1` (racemic), for which the inhibition in experiment [1] turned out to be 82%; in experiment [2], 36%; in experiment [3], 42%. For the same molecule, in experiment [4], the pI50 (-log10 of IC50 in M) is 5. The IC50 in experiment [5] stood at 10 µM. The Log I50 in experiment [6] was less than 4. Moreover, the pI50 (-log I50, M) in experiment [7] is less than 4.
Regarding `CCCCC/C=C\C/C=C\C/C=C\C/C=C\CCCC(=O)OCC1CCOC1` (centres undefined), the values for the inhibition in experiment [1] and in experiment [2] were 78% and 46%, respectively. Besides, the pI50 (-log10 of IC50 in M) in experiment [4] turned out to be 4.98. In addition, the figures for the IC50 (in experiment [5]; on Monoglyceride lipase) were 11 µM and 43 µM, respectively. In addition, the Log I50 in experiment [6] is less than 4. For the same molecule, in experiment [7], the pI50 (-log I50, M) amounted to 4.37.
Turning to `O=C(OCC1CO1)c1ccccc1` (racemic), the inhibition in experiment [1] was 19%; in experiment [2] it was 0.2%; in experiment [3] it was 14%. The pI50 (-log10 of IC50 in M) in experiment [4] was less than 4. Also, the Log I50 in experiment [6] is less than 4. For the same molecule, in experiment [7], the pI50 (-log I50, M) was less than 4.
Take `O=C(OCC1CO1)c1ccccc1-c1ccccc1` (racemic): the inhibition in experiment [1] stood at 5%; in experiment [2], 18%; in experiment [3], 29%. Also, the pI50 (-log10 of IC50 in M) in experiment [4] is less than 4. The Log I50 in experiment [6] was less than 4. For the same molecule, the pI50 (-log I50, M) in experiment [7] is less than 4.

For orientation: inhibition means the share of the control response that was lost under treatment. As usually defined, the IC50 is the concentration needed to halve the response being measured.
